Results reported in patent US4584301A, “Diphenylmethylene piperidines, compositions and methods of use” (Warner-Lambert Company, priority 1985, dated 1986).
Counter-ions that a name gives are not always drawn. Like-named read-outs stand apart in the source and are kept apart here.

How the values were obtained:
Dopamine D2 receptor = Dopamine D2 receptor (Rattus norvegicus, UniProt P61169); assay: Affinity for dopamine D2 receptors in rat brain membranes; format: binding
[1] = biological target: Muscarinic Cholinergic receptor; assay: Affinity for muscarinic cholinergic receptors in rat brain membranes; format: binding
Procedure: This test uses the displacement of [^3 H] quinuclidinyl benzilate ([^3 H]QNB) from specific muscarinic cholinergic receptors in the rat brain to measure in vitro anticholinergic activity of compounds. […]. A Long-Evans male rat weighing 180-200 grams is routinely used. The brain tissue homogenate along with appropriate concentrations of test compounds and [^3 H]QNB is incubated for one hour at 25° C. in a buffer medium of 50 mM Na-K PO4 pH 7.4. The material is filtered and washed on a millipore filter using Whatman GF/B filters. The filters are counted on a scintillation spectrophotometer. A maximal displacement by 0.1 mM oxotremorine is used to determine how much of the total binding is specific for muscarinic receptors.
Results: The results are reported as percent inhibition of total specific binding. Reference: Yamamura, Henry L. and Snyder, Solomon H. (1974). Muscarinic Cholinergic Binding in Rat Brain Proc. Nat. Acad. Sci. USA Vol 71 No. 5 pp. 1725-1729 May 1974.
(§1) for Dopamine D2, Muscarinic, and
(§2) Histamine H1 Receptors in Rat Brain Membranes

Histamine H1 receptor = biological target: T1, Histamine H1 receptor (Rattus norvegicus, UniProt P31390); assay: Affinity for histamine H1 receptors in rat brain membranes; format: binding
T1 construct: Histamine H1 Receptors in Rat Brain Membranes; from tissue; host or cells: rat brain membranes
Text: as §1, §2
*Tran V. T., Lebovitz, R., Toll, L., and Snyder, S. H.: [^3 H]Doxepin
interactions with histamine H1 -receptors in guinea pig and rat brai

[2] = biological target: muscarinic cholinergic receptors; format: binding; details: rat brain homogenate, [3H]QNB, 25° C., pH 7.4; for IC50: read-out: MRBA IC50; for MRBA percent inhibition of total specific binding: concentration not given
brain dopamine receptors = assay: Haloperidol receptor binding assay (HRBA), inhibition of 3H-haloperidol binding; details: rat corpus striatum, 0.6 nM 3H-haloperidol; for IC50: pH 7.7; for HRBA percent inhibition: 1 nM and 10 nM of test drug in primary screen, concentration per value not given
[3] = tested on: apomorphine-induced emesis in dogs; assay: Apomorphine emesis assay; format: in vivo, dog; details: Canis lupus familiaris, oral, apomorphine hydrochloride 0.1 mg/kg s.c.
Procedure: 3. APOMORPHINE EMESIS ASSAY
Method: Dogs, unsegregated with respect to breed or sex, are used. They are fasted for 16 hours prior to the administration of the test compound. The test compounds are given orally by stomach tube at intervals prior to a subcutaneous injection of 0.1 mg/kg of apomorphine hydrochloride. The dogs are observed for changes in behavior or signs of neuropharmacologic action during the period between drugs and the emetic. After the apomorphine injection the frequency of vomiting episodes is recorded.
The number of dogs vomiting per total number tested, the number of vomiting episodes for each dog, and the average number of episodes are reported for dogs treated with the test compound and dogs treated with vehicle.
The drug is rated as being active if no vomiting episodes are seen in 50 percent or more of the dogs tested.

[4] = rat brain membranes, read-out: Receptor Ki, Histamine H1

T1 sequence (P31390 whole entry): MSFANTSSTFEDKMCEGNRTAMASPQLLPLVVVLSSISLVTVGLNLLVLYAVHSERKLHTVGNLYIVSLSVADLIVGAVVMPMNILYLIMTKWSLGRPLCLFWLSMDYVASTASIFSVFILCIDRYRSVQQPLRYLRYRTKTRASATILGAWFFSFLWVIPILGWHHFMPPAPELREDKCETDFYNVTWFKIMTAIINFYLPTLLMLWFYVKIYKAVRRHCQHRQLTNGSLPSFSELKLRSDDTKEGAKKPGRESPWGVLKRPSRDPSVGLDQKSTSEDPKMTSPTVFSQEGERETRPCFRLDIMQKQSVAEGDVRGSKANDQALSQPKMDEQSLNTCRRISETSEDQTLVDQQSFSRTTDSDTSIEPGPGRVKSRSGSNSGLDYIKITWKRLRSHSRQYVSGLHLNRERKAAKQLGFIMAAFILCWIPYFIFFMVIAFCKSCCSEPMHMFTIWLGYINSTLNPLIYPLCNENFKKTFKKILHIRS
Dopamine D2 receptor, sequence (P61169 whole entry): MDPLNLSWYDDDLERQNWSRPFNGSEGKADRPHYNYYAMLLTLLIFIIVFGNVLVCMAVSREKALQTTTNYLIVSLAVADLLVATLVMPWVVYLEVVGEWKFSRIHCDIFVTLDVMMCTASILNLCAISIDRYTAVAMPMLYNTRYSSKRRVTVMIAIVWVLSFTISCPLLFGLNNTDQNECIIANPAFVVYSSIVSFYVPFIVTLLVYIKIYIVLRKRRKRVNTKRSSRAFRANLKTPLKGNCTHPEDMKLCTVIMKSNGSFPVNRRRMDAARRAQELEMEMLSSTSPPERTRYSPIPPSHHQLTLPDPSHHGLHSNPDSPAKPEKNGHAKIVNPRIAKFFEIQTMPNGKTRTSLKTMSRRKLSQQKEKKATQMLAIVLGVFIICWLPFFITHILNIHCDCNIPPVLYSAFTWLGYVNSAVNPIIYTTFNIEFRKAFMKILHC

c1ccc(C(=C2CCN(CCCN3CCCc4ccccc43)CC2)c2ccccc2)cc1
Ki (Dopamine D2 receptor): 42 nM | Ki [1]: 11 nM | Ki (Histamine H1 receptor; [4]): 31 nM

c1ccc(C(=C2CCN(CCN3CCOCC3)CC2)c2ccccc2)cc1 [Compound 1, Morpholine, 4-[2-[4-(diphenylmethylene)-1-piperidinyl]ethyl], dihydrochloride]
IC50 [2]: 148 nM | IC50 (brain dopamine receptors): 29 nM | ED50 [3]: ~5 mg/kg | Ki (Dopamine D2 receptor): 31 nM | Ki [1]: 32 nM | Ki (Histamine H1 receptor; [4]): 20 nM

c1ccc(C(=C2CCN(CCN3CCCC3)CC2)c2ccccc2)cc1 [Compound 2, Piperidine, 4-(diphenylmethylene)-1-[2-(1-pyrrolidinyl)ethyl]-,dihydrochloride]
IC50 [2]: 8.4 nM | IC50 (brain dopamine receptors; unit inferred): 309 nM

c1ccc(C(=C2CCN(CCN3CCCCC3)CC2)c2ccccc2)cc1 [Compound 3, Piperidine, 4-(diphenylmethylene)-1-[2-(1-piperidinyl)ethyl]-, dihydrochloride, hydrate (4:1)]
IC50 [2]: 18.1 nM | IC50 (brain dopamine receptors): 135 nM | Ki (Dopamine D2 receptor): 105 nM | Ki [1]: 3 nM | Ki (Histamine H1 receptor; [4]): 12 nM

c1ccc(C(=C2CCN(CCCN3CCCCC3)CC2)c2ccccc2)cc1 [Compound 4, Piperidine, 4-(diphenylmethylene)-1-[3-(1-piperidinyl)propyl]-,dihydrochloride, hemihydrate]
IC50 [2]: 15 nM | IC50 (brain dopamine receptors): 50.4 nM

CN1CCCC1CCN1CCC(=C(c2ccccc2)c2ccccc2)CC1 (stereo not drawn) [Compound 5, Piperidine, 4-(diphenylmethylene)-1-[2-(1-methyl-2-pyrrolidinyl)ethyl]-, dihydrochloride, hemihydrate]
IC50 [2]: 19.9 nM | IC50 (brain dopamine receptors; unit inferred): 72.7 nM

Cl.Cl.c1ccc(C(=C2CCN(CCCCN3CCCCC3)CC2)c2ccccc2)cc1 [Compound 6, Piperidine, 4-(diphenylmethylene)-1-[4-[1-piperidinyl]butyl]-, dihydrochloride]
MRBA percent inhibition of total specific binding [2]: 83%

O=C(CCN1CCC(=C(c2ccccc2)c2ccccc2)CC1)N1CCCc2ccccc21 [Compound 7]
MRBA percent inhibition of total specific binding [2]: 52%

O=C(CCN1CCC(=C(c2ccccc2)c2ccccc2)CC1)N1CC=C(Oc2ccc(F)cc2)CC1 [Compound 8, pyridine, 1-[3-[4-(diphenylmethylene-1-piperidinyl]-1-oxopropyl]-4-(fluorophenoxy)-1,2,3,6-tetrahydro-, 2-hydroxy-1,2,3-propane tricarboxylate(1:1), dihydrate]
MRBA percent inhibition of total specific binding [2]: 64%

CC1(C)CC(=O)C=C(NCCN2CCC(=C(c3ccccc3)c3ccccc3)CC2)C1 [Compound 9, 2-Cyclohexen-1-one, 3-[[2-[4-(diphenylmethylene)-1-piperidinyl]ethyl]amino]-5,5-dimethyl]
MRBA percent inhibition of total specific binding [2]: 73% | HRBA percent inhibition (brain dopamine receptors): 63% | Ki (Dopamine D2 receptor): 75 nM | Ki [1]: 11 nM | Ki (Histamine H1 receptor; [4]): 56 nM

Cl.Cl.O.c1ccc(C(=C2CCN(CCCN3CCCc4ccccc43)CC2)c2ccccc2)cc1 [Compound 10, Quinoline, 1-[3-[4-(diphenylmethylene]-1-piperidinyl]propyl]-1,2,3,4-tetrahydro-, dihydrochloride, monohydrate]
MRBA percent inhibition of total specific binding [2]: 83% | HRBA percent inhibition (brain dopamine receptors): 69%

O=C(CCN1CCC(=C(c2ccccc2)c2ccccc2)CC1)N1CCC(O)(O)CC1 [Compound 11, 4,4-Piperidinediol, 1-[3-[4-(diphenylmethylene)-1-piperidinyl]-1-oxopropyl]]
IC50 [2]: 38.3 nM | IC50 (brain dopamine receptors): 367 nM

OC1CCN(CCCN2CCC(=C(c3ccccc3)c3ccccc3)CC2)CC1 [Compound 12, 4-Piperidinol, 1-[3-[4-(diphenylmethylene)-1-piperidinyl]propyl]-,dihydro-chloride, hemihydrate]
MRBA percent inhibition of total specific binding [2]: 63% | HRBA percent inhibition (brain dopamine receptors): 89% | Ki (Dopamine D2 receptor): 25 nM | Ki [1]: 15 nM | Ki (Histamine H1 receptor; [4]): 6.1 nM

OCCC1CCN(CCCN2CCC(=C(c3ccccc3)c3ccccc3)CC2)CC1 [Compound 13, 4-Piperidineethanol, 1-[3-[4-(diphenylmethylene)-1-piperidinyl]propyl]-,dihydrochloride, monohydrate]
MRBA percent inhibition of total specific binding [2]: 83% | HRBA percent inhibition (brain dopamine receptors): 55% | Ki (Dopamine D2 receptor): 158 nM | Ki [1]: 5 nM | Ki (Histamine H1 receptor; [4]): 19.5 nM

Fc1ccc(C(=C2CCN(CCCN3CCCCC3)CC2)c2ccc(F)cc2)cc1 [Compound 14, Piperidine, 1-[3-(1-piperidinyl)propyl]-4-[bis-(4-fluorophenyl)-methylene]-, dihydrochloride, hydrate (2:1)]
MRBA percent inhibition of total specific binding [2]: 57% | HRBA percent inhibition (brain dopamine receptors): 73% | Ki (Dopamine D2 receptor): 67 nM | Ki [1]: 23 nM | Ki (Histamine H1 receptor; [4]): 16 nM

Cl.Cl.Fc1ccc(C(=C2CCN(CCN3CCCCC3)CC2)c2ccc(F)cc2)cc1 [Compound 15, Piperidine, 4-[bis-(4-fluorophenyl)-methylene]-1-[2-(1-piperidinyl)ethyl]-, dihydrochloride]
MRBA percent inhibition of total specific binding [2]: 67% | HRBA percent inhibition (brain dopamine receptors): 62% | Ki (Dopamine D2 receptor): 56 nM | Ki [1]: 17 nM | Ki (Histamine H1 receptor): 86 nM

CN1CCCC1CCN1CCC(=C(c2ccc(F)cc2)c2ccc(F)cc2)CC1 (stereo not drawn) [Compound 16, Piperidine, 4-[bis-(4-fluorophenyl)-methylene]-1-[2-(1-methyl-2-pyrrolidinyl)ethyl]-, (E)-2-butanedioate (1:2)]
MRBA percent inhibition of total specific binding [2]: 36% | HRBA percent inhibition (brain dopamine receptors): 48%

Fc1cccc(C(=C2CCN(CCCN3CCCCC3)CC2)c2cccc(F)c2)c1 [Compound 17, dihydrochloride]
MRBA percent inhibition of total specific binding [2]: 32%

Cl.Cl.Clc1cccc(C(=C2CCN(CCCN3CCCCC3)CC2)c2ccccc2)c1 [Compound 18, Piperidine, 4-[(3-chlorophenyl)phenylmethylene]-1-[3-(1-piperidinyl)propyl]-, dihydrochloride]
MRBA percent inhibition of total specific binding [2]: 37% | HRBA percent inhibition (brain dopamine receptors): 52%

Fc1cccc(C(=C2CCN(CCCN3CCCCC3)CC2)c2ccccc2)c1 [Compound 19, Piperidine, 4-[(3-fluorophenyl)phenylmethylene]-1-[3-(1-piperidinyl)propyl]-, dihydrochloride]
MRBA percent inhibition of total specific binding [2]: 45% | HRBA percent inhibition (brain dopamine receptors): 36%

O=C(CCCN1CCCCC1)N1CCC(=C(c2ccccc2)c2ccccc2)CC1 [Compound 20, Piperidine, 4-(diphenylmethylene)-1-[1-oxo-4-(1-piperidinyl)butyl]-]
MRBA percent inhibition of total specific binding [2]: 54%

CSC(=NC#N)NCCCN1CCC(=C(c2ccccc2)c2ccccc2)CC1 [Compound 21, Carbamimidothioic acid, N'-cyano-N-[3-[4-(diphenylmethylene)-1-piperidinyl]-propyl]-, methyl ester]
IC50 [2]: 64.7 nM | IC50 (brain dopamine receptors): 39.2 nM | Ki (Dopamine D2 receptor): 32 nM | Ki [1]: 8.6 nM | Ki (Histamine H1 receptor; [4]): 0.38 nM

CNC(=NC#N)NCCCN1CCC(=C(c2ccccc2)c2ccccc2)CC1 [Compound 22, Guanidine, N'-cyano-N-[3-[4-(diphenylmethylene)-1-piperidinyl]propyl]-N'-methyl]
MRBA percent inhibition of total specific binding [2]: 42% | HRBA percent inhibition (brain dopamine receptors): 73%

N#CN=C(NCCCN1CCC(=C(c2ccccc2)c2ccccc2)CC1)N1CCCCC1 [Compound 23, 1-Piperidinecarboximidamine, N'-cyano-N-[3-[4-diphenylmethylene]-1-piperidinyl]propyl]
MRBA percent inhibition of total specific binding [2]: 86% | HRBA percent inhibition (brain dopamine receptors): 55% | Ki (Dopamine D2 receptor): 28 nM | Ki [1]: 2 nM | Ki (Histamine H1 receptor; [4]): 1.7 nM
